Laboratory results: patent US9410197B2, “Compound for sequencing by synthesis” (Roche Diagnostics Operations, Inc., priority 2013, dated 2016)
Where “and” joins values, the source holds several entries; their conditions need not be identical. Equal values may be shown once.

Key:
[1] = Cleavage of the 3′-O-nitro group with cysteamine-NaOH; assay type: physicochemical; conditions: aqueous cysteamine-NaOH (pH 9.0), 1.0 to 2.0 M cysteamine, after 5 minutes at 50° C.
Protocol: 10 to 100 nmol of 3′-O-nitro-thymidine 2 were dissolved in an aqueous solution of cysteamine-NaOH (pH 9.0) to obtain a final nucleoside concentration of 0.17 to 1.7 nmol/μL and a final cysteamine concentration of 1.0 to 2.0 M. Reaction control was performed via analytical reversed-phase chromatography using 0.1 M triethylammonium acetate (pH 7.0)/acetonitrile gradient as eluent.

[2] = target: T1, Therminator II DNA polymerase (Thermococcus sp., UniProt Q56366, A485L/D141A/E143A/Y409V); assay type: biochemical
T1 construct: purchased New England Biolabs
T1 sequence (Q56366 1-775 D141A/E143A/Y409V/A485L): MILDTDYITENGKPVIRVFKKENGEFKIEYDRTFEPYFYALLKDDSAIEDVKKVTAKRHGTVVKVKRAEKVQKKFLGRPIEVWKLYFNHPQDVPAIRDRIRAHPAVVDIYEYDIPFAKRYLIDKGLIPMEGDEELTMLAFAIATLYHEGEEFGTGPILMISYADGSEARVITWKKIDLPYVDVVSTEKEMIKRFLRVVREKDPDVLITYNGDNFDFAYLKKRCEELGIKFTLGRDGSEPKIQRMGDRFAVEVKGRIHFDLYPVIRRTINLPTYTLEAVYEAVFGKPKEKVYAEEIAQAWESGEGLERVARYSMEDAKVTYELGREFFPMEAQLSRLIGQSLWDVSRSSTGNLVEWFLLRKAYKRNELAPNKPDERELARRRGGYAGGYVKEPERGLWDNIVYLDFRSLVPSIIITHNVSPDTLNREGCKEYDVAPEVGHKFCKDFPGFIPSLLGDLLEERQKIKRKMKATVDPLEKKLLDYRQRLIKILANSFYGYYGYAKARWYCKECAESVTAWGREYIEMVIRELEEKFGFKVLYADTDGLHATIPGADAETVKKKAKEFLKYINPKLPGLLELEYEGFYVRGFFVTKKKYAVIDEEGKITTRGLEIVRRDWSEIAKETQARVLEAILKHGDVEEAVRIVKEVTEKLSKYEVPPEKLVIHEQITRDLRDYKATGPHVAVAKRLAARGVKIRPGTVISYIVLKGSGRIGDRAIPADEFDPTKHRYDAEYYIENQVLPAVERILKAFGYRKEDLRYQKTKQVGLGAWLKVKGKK

Cc1cn([C@H]2C[C@H](O[N+](=O)[O-])[C@@H](CO)O2)c(=O)[nH]c1=O [Compound 2, 3′-O-Nitro-β-D-thymidine]
cleavage of the nitrate group [1]: Quantitative cleavage

Cc1cn([C@H]2C[C@H](O[N+](=O)[O-])[C@@H](COP(=O)([O-])OP(=O)([O-])OP(=O)([O-])[O-])O2)c(=O)[nH]c1=O.[Na+].[Na+].[Na+].[Na+] [Compound 3, 3′-O-Nitro-β-D-thymidine 5′-triphosphate, tetrasodium salt]
acceptance as substrate by Therminator II DNA polymerase [2]: accepted as substrates | incorporation by Therminator II DNA polymerase [2]: incorporated efficiently | primer + dNTP MWfound [2]: 5108.2 DA and 5108.1 DA and 5108.3 DA and 5108.4 DA
